Assay: Melting of Form A0 in dry N2 (heated to 140° C., cooled to room temperature)
Format: physicochemical
Conditions: heated to 140° C. in dry N2 atmosphere, then cooled to room temperature and crushed
Procedure: A. The amorphous form of funapide was generated by melting Form A0 of funapide in a dry N2 atmosphere optionally using the VT stage on the XRPD unit. The sample was heated to 140° C. and then cooled to room temperature and crushed. […] The sample was confirmed to be the amorphous form of funapide by XRPD.

decomposition on melting: No decomposition was observed
SMILES: O=C1N(Cc2ccc(C(F)(F)F)o2)c2ccccc2[C@]12COc1cc3c(cc12)OCO3 [Form A0 of funapide]
